The compounds below were run on Human Cav2.3 channel (assay: Human Cav2.3 channel calcium-influx assay). Details: Fluo8 fluorescence, HEK-293 T-Rex/Kir2.1/Cav2.3e cells, without pluronic acid.
Assay type: cell-based
Summary of the method: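 Signal = peak fluorescence (5–130 s) minus baseline (1–2 s), normalized to neutral (0) and inhibitor (−100) controls as % effect. Depolarization used final 20 mM KCl, 130 mM NaCl, 2 mM CaCl2, after 3 min RT compound exposure (30 μM top, half-log, 8 points, 0.3% DMSO) in doxycycline-induced HEK-293 T-Rex/Kir2.1/Cav2.3e-β4-α2δ1 cells with Fluo8 NW.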

Cav2.3 (pIC50)	SMILES
6.18	CCN([C@H](c1ccc(F)cc1)C(F)(F)F)S(=O)(=O)c1ccc2nncn2n1 [Example 192, (R)—N-ethyl-N-(2,2,2-trifluoro-1-(4-fluorophenyl)ethyl)-[1,2,4]triazolo[4,3-b]pyridazine-6-sulfonamide]
6.65	CN([C@H](c1ccc(Cl)cc1)C(F)(F)F)S(=O)(=O)c1cnc2[nH]cnc2c1 [Example 193, (R)—N-(1-(4-chlorophenyl)-2,2,2-trifluoroethyl)-N-methyl-3H-imidazo[4,5-b]pyridine-6-sulfonamide]
5.89	CN([C@H](c1ccc(Cl)cc1)C(F)(F)F)S(=O)(=O)c1ccc2nncn2n1 [Example 205, (R)—N-(1-(4-chlorophenyl)-2,2,2-trifluoroethyl)-N-methyl-[1,2,4]triazolo[4,3-b]pyridazine-6-sulfonamide]
6.02	COc1ccc(S(=O)(=O)N(C)[C@H](c2ccc(Cl)cc2)C(F)(F)F)nn1 [Example 207, (R)—N-(1-(4-chlorophenyl)-2,2,2-trifluoroethyl)-6-methoxy-N-methylpyridazine-3-sulfonamide]
6.85	CN([C@H](c1ccc(Cl)cc1)C(F)(F)F)S(=O)(=O)c1cnc2cccnn12 [Example 210, (R)—N-(1-(4-chlorophenyl)-2,2,2-trifluoroethyl)-N-methylimidazo[1,2-b]pyridazine-3-sulfonamide]
7.17	CN([C@H](c1ccc(C(F)(F)F)cc1)C(F)(F)F)S(=O)(=O)c1cnc2cccnn12 [Example 211, (R)—N-methyl-N-(2,2,2-trifluoro-1-(4-(trifluoromethyl)phenyl)ethyl)imidazo[1,2-b]pyridazine-3-sulfonamide]
7.15	CN([C@H](c1ccc(C(F)(F)F)cc1)C(F)(F)F)S(=O)(=O)c1ccn2ncnc2c1 [Example 215, (R)—N-methyl-N-(2,2,2-trifluoro-1-(4-(trifluoromethyl)phenyl)ethyl)-[1,2,4]triazolo[1,5-a]pyridine-7-sulfonamide]
6.85	CN([C@H](c1ccc(C(F)(F)F)cc1)C(F)(F)F)S(=O)(=O)c1cncc(F)c1 [Example 224, (R)-5-fluoro-N-methyl-N-(2,2,2-trifluoro-1-(4-(trifluoromethyl)phenyl)ethyl)pyridine-3-sulfonamide]
6.79	Cc1ccc([C@@H](N(C)S(=O)(=O)c2cncnc2)C(F)(F)F)cc1 [Example 226, (R)—N-methyl-N-(2,2,2-trifluoro-1-(p-tolyl)ethyl)pyrimidine-5-sulfonamide]
6.93	COc1cc(S(=O)(=O)N(C)[C@H](c2ccc(Cl)cc2)C(F)(F)F)cnn1 [Example 229, (R)—N-(1-(4-chlorophenyl)-2,2,2-trifluoroethyl)-6-methoxy-N-methylpyridazine-4-sulfonamide]
7.00	CN([C@H](c1ccc(Cl)cc1)C(F)(F)F)S(=O)(=O)c1cnc2ncccn12 [Example 230, (R)—N-(1-(4-chlorophenyl)-2,2,2-trifluoroethyl)-N-methylimidazo[1,2-a]pyrimidine-3-sulfonamide]
5.91	CN([C@H](c1ccc(C(F)(F)F)cc1)C(F)(F)F)S(=O)(=O)c1ccc2ncc(Cl)n2c1 [Example 233, (R)-3-chloro-N-methyl-N-(2,2,2-trifluoro-1-(4-(trifluoromethyl)phenyl)ethyl)imidazo[1,2-a]pyridine-6-sulfonamide]
6.38	CN([C@H](c1ccc(C(F)(F)F)cc1)C(F)(F)F)S(=O)(=O)c1ccc2nccn2c1 [Example 234, (R)—N-methyl-N-(2,2,2-trifluoro-1-(4-(trifluoromethyl)phenyl)ethyl)imidazo[1,2-a]pyridine-6-sulfonamide]
7.33	CN([C@H](c1ccc(C(F)(F)F)cc1)C(F)(F)F)S(=O)(=O)c1ccn2ccnc2c1 [Example 236, (R)—N-methyl-N-(2,2,2-trifluoro-1-(4-(trifluoromethyl)phenyl)ethyl)imidazo[1,2-a]pyridine-7-sulfonamide]

Further lines, the compound ahead of its results:

SMILES	Cav2.3 (pIC50)
CN([C@H](c1ccc(F)cc1)C(F)(F)F)S(=O)(=O)c1ccc2c(c1)OC(F)(F)O2 [Example 163, (R)-2,2-difluoro-N-methyl-N-(2,2,2-trifluoro-1-(4-fluorophenyl)ethyl)benzo[d][1,3]dioxole-5-sulfonamide]	5.76
CN([C@H](c1ccc(Cl)cc1)C(F)F)S(=O)(=O)c1cncc(C#N)c1 [Example 206, (R)—N-(1-(4-chlorophenyl)-2,2-difluoroethyl)-5-cyano-N-methylpyridine-3-sulfonamide]	6.60
CCN([C@H](c1ccc(C(F)(F)F)cc1)C(F)(F)F)S(=O)(=O)c1cnc2cccnn12 [Example 212, (R)—N-ethyl-N-(2,2,2-trifluoro-1-(4-(trifluoromethyl)phenyl)ethyl)imidazo[1,2-b]pyridazine-3-sulfonamide]	6.80
CN([C@@H](CF)c1ccc(Cl)cc1)S(=O)(=O)c1cncc(C#N)c1 [Example 213, (R)—N-(1-(4-chlorophenyl)-2-fluoroethyl)-5-cyano-N-methylpyridine-3-sulfonamide]	6.07
CN([C@H](c1ccc(C(F)(F)F)cc1)C(F)(F)F)S(=O)(=O)c1cnc2ncccn12 [Example 214, (R)—N-methyl-N-(2,2,2-trifluoro-1-(4-(trifluoromethyl)phenyl)ethyl)imidazo[1,2-a]pyrimidine-3-sulfonamide]	6.95
CCN([C@H](c1ccc(C(F)(F)F)cc1)C(F)(F)F)S(=O)(=O)c1ccn2ncnc2c1 [Example 216, (R)—N-ethyl-N-(2,2,2-trifluoro-1-(4-(trifluoromethyl)phenyl)ethyl)-[1,2,4]triazolo[1,5-a]pyridine-7-sulfonamide]	7.29
CCN(C(c1ccc(F)cc1F)C(F)(F)F)S(=O)(=O)c1cncc(C#N)c1 (centres unmarked) [Example 243, 5-cyano-N-(1-(2,4-difluorophenyl)-2,2,2-trifluoroethyl)-N-ethylpyridine-3-sulfonamide]	5.19
CCN(C(c1ccc(F)cc1F)C(F)(F)F)S(=O)(=O)c1cncc(C#N)c1 (centres unmarked) [Example 244, 5-cyano-N-(1-(2,4-difluorophenyl)-2,2,2-trifluoroethyl)-N-ethylpyridine-3-sulfonamide]	5.84
CCN([C@@H](c1ccc(F)c(C)c1)C(F)(F)F)S(=O)(=O)c1cncc(C#N)c1 [Example 245, (S)-5-cyano-N-ethyl-N-(2,2,2-trifluoro-1-(4-fluoro-3-methylphenyl)ethyl)pyridine-3-sulfonamide]	5.70
CCN([C@H](c1ccc(F)c(C)c1)C(F)(F)F)S(=O)(=O)c1cncc(C#N)c1 [Example 246, (R)-5-cyano-N-ethyl-N-(2,2,2-trifluoro-1-(4-fluoro-3-methylphenyl)ethyl)pyridine-3-sulfonamide]	7.31
CCN([C@@H](c1ccccc1C(F)(F)F)C(F)(F)F)S(=O)(=O)c1cncc(C#N)c1 [Example 247, (S)-5-cyano-N-ethyl-N-(2,2,2-trifluoro-1-(2-(trifluoromethyl)phenyl)ethyl)pyridine-3-sulfonamide]	5.11
CCN([C@H](c1ccccc1C(F)(F)F)C(F)(F)F)S(=O)(=O)c1cncc(C#N)c1 [Example 248, (R)-5-cyano-N-ethyl-N-(2,2,2-trifluoro-1-(2-(trifluoromethyl)phenyl)ethyl)pyridine-3-sulfonamide]	5.14
